Experimental data published in patent US8841466B2, “Series of artemisinin derivatives and process for preparation thereof” (Council of Scientific & Industrial Research, priority 2010, dated 2014).
pIC50: −log10 of the molar value.

Tests used:
Prostrate DU-145 = experiment: In vitro cytotoxicity (sulforhodamine B) against human cancer cell lines, Prostrate DU-145; assay type: cell-based; details: read-out: % GROWTH INHIBITION Prostrate DU-145; for inhibition at 50 µM: Conc 5 × 10^−5 M, 48 hours
Procedure: (§1) The human cancer cell lines procured from National Cancer Institute, Frederick, U.S.A., were used in present study. Cells were grown in tissue culture flasks in complete growth medium (RPMI-1640 medium with 2 mM glutamine, 100 μg/mL streptomycin, pH 7.4, sterilized by filtration and supplemented with 10% fetal bovine serum and 100 units/ml penicillin before use) at 37° C. in an atmosphere of 5% CO2 and 90% relative humidity in a carbon dioxide incubator. The cells at subconfluent stage were harvested from the flask by treatment with trypsin (0.05% in PBS containing 0.02% EDTA) for determination of cytotoxicity. The cell suspension of the required cell density was prepared in complete growth medium with gentamycin (50 μg/mL) for determination of cytotoxicity.
(§2) Stock solutions of 2×10^−2M of test materials were prepared in DMSO. The stock solutions were serially diluted with complete growth medium containing 50 μg/ml of gentamycin to obtain working test solution of 2×10^−5M to obtain final concentration of 1×10^−5 M respectively.
(§3) In vitro cytotoxicity against human cancer cell lines was determined (Monks of al., J. Natl. Cancer Inst. 1991, 83, 757-766). The 100 μL of cell suspension was added to each well of the 96-well tissue culture plate. The cells were incubated for 24 hours (at 37° C. in an atmosphere of 5% CO2 and 90% relative humidity in a carbon dioxide incubator). Test materials in complete growth medium (100 μL) were added after 24 hours incubation to the wells containing cells. The plates were further incubated for 48 hours in a carbon dioxide incubator after addition of test material. The cell growth was stopped by gently layering trichloroacetic acid (50 μL, 50% w/v) on top of the medium in all the wells. The plates were incubated at 4° C. for one hour to fix the cells attached to the bottom of the wells. The liquid of all the wells was then gently decanted and discarded. The plates were washed five times with distilled water and air-dried. Cell growth was measured by staining with sulforhodamine B dye (Skehan et al., J. Natl. Cancer Inst. 1990, 82, 1107-1112). The adsorbed dye was dissolved in Tris-Buffer (100 μL, 0.01M, pH 10.4) and plates were gently stirred for 10 minutes on a mechanical stirrer. The optical density (OD) was recorded on ELISA reader at 540 nm.
(§4) The cell growth was calculated by subtracting mean OD value of respective blank from the mean OD value of experimental set. Percent growth in presence of test material was calculated considering the growth in absence of any test material as 100% and in turn percent growth inhibition in presence of test material was calculated. Suitable blank, controls and positive controls were included in the study.

Colon Colo-205 = experiment: In vitro cytotoxicity (sulforhodamine B) against human cancer cell lines, Colon Colo-205; assay type: cell-based; details: read-out: % GROWTH INHIBITION Colon Colo-205; for inhibition at 50 µM: Conc 5 × 10^−5 M, 48 hours
Procedure: as §1, §2, §3, §4

Breast MCF-7 = experiment: In vitro cytotoxicity (sulforhodamine B) against human cancer cell lines, Breast MCF-7; assay type: cell-based; details: read-out: % GROWTH INHIBITION Breast MCF-7; for inhibition at 50 µM: MCF7, Conc 5 × 10^−5 M, 48 hours
Procedure: as §1, §2, §3, §4

Ovary IGR-OV-1 = experiment: In vitro cytotoxicity (sulforhodamine B) against human cancer cell lines, Ovary IGR-OV-1; assay type: cell-based; details: IGROV-1, Conc 5 × 10^−5 M, 48 hours, read-out: % GROWTH INHIBITION Ovary IGR-OV-1
Procedure: as §1, §2, §3, §4

Prostrate PC-3 = experiment: In vitro cytotoxicity (sulforhodamine B) against human cancer cell lines, Prostrate PC-3; assay type: cell-based; details: read-out: % GROWTH INHIBITION Prostrate PC-3; for inhibition at 50 µM: Conc 5 × 10^−5 M, 48 hours
Procedure: as §1, §2, §3, §4

Lung A-549 = experiment: In vitro cytotoxicity (sulforhodamine B) against human cancer cell lines, Lung A-549; assay type: cell-based; details: read-out: % GROWTH INHIBITION Lung A-549; for inhibition at 50 µM: A549, Conc 5 × 10^−5 M, 48 hours
Procedure: as §1, §2, §3, §4

Neuroblastoma IMR-32 = experiment: In vitro cytotoxicity (sulforhodamine B) against human cancer cell lines, Neuroblastoma IMR-32; assay type: cell-based; details: read-out: % GROWTH INHIBITION Neuroblastoma IMR-32; for inhibition at 50 µM: Conc 5 × 10^−5 M, 48 hours
Procedure: as §1, §2, §3, §4

P388 leukemia = details: NCI Report on NSC 369397, 25 Oct. 1983; cited from earlier work
[1] = tested on: cell line panels consisting of 60 lines; details: nine disease-related subpanels; cited from earlier work
[2] = tested on: Ehrlich ascites tumor (EAT) cells; details: MTT assay, read-out: IC50 (drug concentration causing 50% growth inhibition of the tumor cells); cited from earlier work
[3] = Conc 1 × 10^−5 M, positive control

SMILES	inhibition at 50 µM (Prostrate DU-145)	inhibition at 50 µM (Colon Colo-205)	inhibition at 50 µM (Breast MCF-7)	inhibition at 50 µM (Ovary IGR-OV-1)	inhibition at 50 µM (Prostrate PC-3)	inhibition at 50 µM (Lung A-549)	inhibition at 50 µM (Neuroblastoma IMR-32)	other results
C=C(C#N)[C@H](O)C[C@H]1O[C@@H]2O[C@]3(C)CC[C@H]4[C@H](C)CC[C@@H]([C@H]1C)[C@@]24OO3 (single isomer, unassigned) [Compound 3b]	46%	56%	46%	42%	65%	66%	48%	
C=C(C#N)[C@@H](O)C[C@H]1O[C@@H]2O[C@]3(C)CC[C@H]4[C@H](C)CC[C@@H]([C@H]1C)[C@@]24OO3 (single isomer, unassigned) [Compound 3b′]	60%	75%	55%	56%	78%	77%	62%	
O=c1[nH]cc(F)c(=O)[nH]1 [5-Fluorouracil, reference compound]								inhibition at 20 µM (Colon Colo-205; Conc 2 × 10^−5 M, positive control): 54%
COc1cccc2c1C(=O)c1c(O)c3c(c(O)c1C2=O)C[C@@](O)(C(=O)CO)C[C@@H]3O[C@H]1C[C@H](N)[C@H](O)[C@H](C)O1 [Adriamycin, reference compound]								inhibition at 1 µM (Breast MCF-7; MCF7, Conc 1 × 10^−6 M, positive control): 72%; inhibition at 1 µM (Neuroblastoma IMR-32; Conc 1 × 10^−6 M, positive control): 70%
C[C@@H]1CC[C@H]2[C@@H](C)C(=O)O[C@@H]3O[C@@]4(C)CC[C@@H]1[C@]32OO4 [Artemisinin, artemisinin]	38%	40%	34%	26%	22%	29%	23%	activity against P388 leukemia (P388 leukemia): inactive; anticancer activity on 60 cell line panels [1]: very little anticancer activity; pIC50 [2]: 4.53
C=C(C(=O)OC)[C@H](O)C[C@H]1O[C@@H]2O[C@]3(C)CC[C@H]4[C@H](C)CC[C@@H]([C@H]1C)[C@@]24OO3 [Compound 3a]				63%		70%	56%	
C=C(C(C)=O)[C@H](O)C[C@H]1O[C@@H]2O[C@]3(C)CC[C@H]4[C@H](C)CC[C@@H]([C@H]1C)[C@@]24OO3 [Compound 3c]	73%	100%	66%	33%	81%	85%	79%	
C[C@H]1[C@@H](C[C@@H](O)C2=CCCCC2=O)O[C@@H]2O[C@]3(C)CC[C@H]4[C@H](C)CC[C@@H]1[C@@]24OO3 [Compound 3d]	52%	63%	43%	60%	68%	66%	72%	
CO[C@@]12[C@H](COC(N)=O)C3=C(C(=O)C(C)=C(N)C3=O)N1C[C@@H]1N[C@@H]12 [Mitomycin, reference compound]								inhibition at 10 µM (Prostrate DU-145; [3]): 92%; inhibition at 10 µM (Prostrate PC-3; [3]): 54%
CC(=O)O[C@H]1C(=O)[C@@]2(C)[C@H]([C@H](OC(=O)c3ccccc3)[C@]3(O)C[C@H](OC(=O)[C@H](O)[C@@H](NC(=O)c4ccccc4)c4ccccc4)C(C)=C1C3(C)C)[C@]1(OC(C)=O)CO[C@@H]1C[C@@H]2O [Paclitaxel, reference compound]								inhibition at 10 µM (Lung A-549; A549, Conc 1 × 10^−5 M, positive control): 69%
